Among the test systems are A498; CAKI-1; COLO 205; HCT-15; Hs-578T; MDA-MB-435; NCI-H226; NCI-H23; NCI-H522; NCI/ADR-RES; OVCAR-5; OVCAR-8; PC-3; SF-539; SK-MEL-28; SK-MEL-2; SK-OV-3; SNB-75; SW-620; UACC-62.
What all share (assay): inhibition of tumour cell growth, NCI panel, 48 h

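Results reflect a 48-hour exposure of cells in 96-well plates to compound at five concentrations. Here, GI50 denotes the concentration required for 50% inhibition of growth.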 The source made the active and inactive calls. Cut-off read from the data, not from the text of the source: active = GI50 up to about 1.1 µM and inactive = higher.

As to `Nc1ccc2c(c1)N(C(=O)c1cc3cc(NC(=O)c4cc5ccccc5o4)ccc3[nH]1)CC2CCl` (stereo not given), the GI50 in the assay with A498 is 0.16 µM (active); in the assay on CAKI-1 it was 0.0338 µM (active); with COLO 205, 0.0904 µM (active); with HCT-15 it was 0.0847 µM; in the assay on Hs-578T it was 0.293 µM (active); in the assay with MDA-MB-435 it was 0.162 µM (active). The GI50 in the assay with NCI-H226 was 0.13 µM (active); with NCI-H23 it was 0.0211 µM (active); with NCI-H522 it was < 0.01 µM (active); in the assay with NCI/ADR-RES, 0.0332 µM (active); with OVCAR-5, 0.114 µM (active); with OVCAR-8, 0.0397 µM (active). Also, the GI50 in the assay on PC-3 is 0.0671 µM (active); with SF-539, 0.0191 µM (active); in the assay on SK-MEL-28, 0.177 µM (active); in the assay on SK-MEL-2, 0.0755 µM (active); in the assay on SK-OV-3 it was 0.128 µM (active); with SNB-75 it was 0.153 µM (active). The GI50 was 0.0973 µM (active) with SW-620 and 0.112 µM (active) with UACC-62.
Turning to `O=c1c2cc([N+](=O)[O-])ccc2n(Cc2ccccc2)n1Cc1ccccc1`, the GI50 is 15.9 µM (inactive) in the assay on A498; 22.2 µM (inactive) in the assay with CAKI-1; 18.8 µM (inactive) in the assay with COLO 205; 20.1 µM in the assay with HCT-15; 16.3 µM (inactive) with Hs-578T; 10.8 µM (inactive) in the assay with MDA-MB-435. Further, the GI50 with NCI-H226 is 12.7 µM (inactive); with NCI-H23 it was 13.1 µM (inactive); in the assay with NCI-H522, 12 µM (inactive); with NCI/ADR-RES, 11.2 µM (inactive); with OVCAR-5, > 31.6 µM (inactive); with OVCAR-8 it was 11.9 µM (inactive). Besides, the GI50 was 12 µM (inactive) in the assay on PC-3; 19.2 µM (inactive) in the assay on SF-539; 18.5 µM (inactive) with SK-MEL-28; 12.6 µM (inactive) in the assay with SK-MEL-2; > 10 µM (inactive) in the assay on SK-OV-3; 10.4 µM (inactive) in the assay with SNB-75. The results for the GI50 in the assay on SW-620 and with UACC-62 were 17.4 µM (inactive) and 8.63 µM (inactive), respectively.
Consider `CCOC(=O)CC[C@H](N)C(=O)N[C@@H](Cc1ccc(N(CCCl)CCCl)cc1)C(=O)OCC`, for which the GI50 in the assay on A498 is 17.7 µM (inactive); with CAKI-1, 0.358 µM (active); in the assay with COLO 205, 0.938 µM (active); with HCT-15 it was 0.726 µM; in the assay on Hs-578T it was 2.16 µM (inactive); with MDA-MB-435 it was 1.39 µM (inactive). Also, the GI50 in the assay on NCI-H226 is 11.1 µM (inactive); in the assay with NCI-H23 it was 0.278 µM (active); with NCI-H522, 1.12 µM (active); in the assay with NCI/ADR-RES, 1.52 µM (inactive); with OVCAR-5, 2.39 µM (inactive); in the assay with OVCAR-8, 0.891 µM (active). Also, the GI50 was 1.29 µM (inactive) in the assay with PC-3; 0.706 µM (active) with SF-539; 0.869 µM (active) with SK-MEL-28; 2.69 µM (inactive) in the assay on SK-MEL-2; 1.48 µM (inactive) in the assay with SK-OV-3; 1.22 µM (inactive) in the assay with SNB-75. In addition, the GI50 in the assay on SW-620 was 0.977 µM (active); in the assay on UACC-62, 0.256 µM (active).
For the compound `C1CCN(CCC2CCCCN2)CC1` (stereo not given), the GI50 in the assay on A498 is > 100 µM (inactive); in the assay with CAKI-1, > 100 µM (inactive); with COLO 205, > 100 µM (inactive); in the assay on HCT-15 it was greater than 100 µM; with Hs-578T it was > 100 µM (inactive); in the assay with MDA-MB-435, > 100 µM (inactive). In addition, the GI50 in the assay on NCI-H226, in the assay with NCI-H23, in the assay with NCI-H522, in the assay on NCI/ADR-RES, in the assay on OVCAR-5 and with OVCAR-8 was > 100 µM (inactive) each time. Also, the GI50 in the assay with PC-3, in the assay with SF-539, with SK-MEL-28, in the assay with SK-MEL-2, in the assay with SK-OV-3 and in the assay on SNB-75 was > 100 µM (inactive) each time. Besides, the GI50 with SW-620 and with UACC-62 was > 100 µM (inactive) in each case.
For the compound `CC1=CC(=O)c2cccc(O)c2C1=O`, the GI50 is 18.5 µM (inactive) with A498; 1.88 µM (inactive) with CAKI-1; 2.09 µM (inactive) with COLO 205; 1.56 µM in the assay with HCT-15; 3.07 µM (inactive) in the assay with Hs-578T; 1.78 µM (inactive) with MDA-MB-435. The GI50 in the assay with NCI-H226 was 7.28 µM (inactive); with NCI-H23, 2.96 µM (inactive); in the assay with NCI-H522 it was 2.25 µM (inactive); with NCI/ADR-RES it was 1.82 µM (inactive); with OVCAR-5 it was 8.09 µM (inactive); in the assay on OVCAR-8, 2.56 µM (inactive). The GI50 was 2.1 µM (inactive) with PC-3; 5.7 µM (inactive) with SF-539; 4.25 µM (inactive) with SK-MEL-28; 2.09 µM (inactive) in the assay on SK-MEL-2; 14.3 µM (inactive) with SK-OV-3; 8.73 µM (inactive) in the assay on SNB-75. Besides, the GI50 with SW-620 was 1.99 µM (inactive); in the assay on UACC-62 it was 1.96 µM (inactive).
Take `c1ccc2c(c1)Nc1ccccc1[P+]21c2ccccc2Nc2ccccc21`: the GI50 with A498 is 0.318 µM (active); in the assay with CAKI-1, 1.61 µM (inactive); with COLO 205 it was 0.048 µM (active); with HCT-15, 5.73 µM; in the assay with Hs-578T, 0.0723 µM (active); with MDA-MB-435 it was 0.284 µM (active). Moreover, the GI50 in the assay on NCI-H226 is 0.0964 µM (active); in the assay on NCI-H23, 0.175 µM (active); with NCI-H522 it was 0.179 µM (active); in the assay with NCI/ADR-RES, 69.2 µM (inactive); in the assay with OVCAR-5, 0.281 µM (active); with OVCAR-8 it was 0.368 µM (active). Besides, the GI50 in the assay with PC-3 is 0.169 µM (active); with SF-539, 0.156 µM (active); with SK-MEL-28, 0.244 µM (active); with SK-MEL-2 it was 0.199 µM (active); in the assay on SK-OV-3, 0.267 µM (active); in the assay with SNB-75, 0.0466 µM (active). Besides, the GI50 in the assay with SW-620 is 0.279 µM (active); in the assay on UACC-62 it was 0.143 µM (active).
As for `CC(NNC(=O)c1ccncc1)c1cccc(C(F)(F)F)c1` (stereo not given), the GI50 with A498 is > 100 µM (inactive); in the assay on CAKI-1, > 100 µM (inactive); in the assay on COLO 205, > 100 µM (inactive); in the assay on HCT-15 it was greater than 100 µM; in the assay on Hs-578T it was > 100 µM (inactive); in the assay on MDA-MB-435, > 100 µM (inactive). For the same compound, the GI50 in the assay with NCI-H226, with NCI-H23, with NCI-H522, in the assay on NCI/ADR-RES, in the assay with OVCAR-5 and in the assay with OVCAR-8 was > 100 µM (inactive) in each case. Also, the GI50 in the assay on PC-3, in the assay with SF-539, with SK-MEL-28, in the assay with SK-MEL-2, with SK-OV-3 and in the assay on SNB-75 was > 100 µM (inactive) throughout. Also, the GI50 with SW-620 and in the assay on UACC-62 was > 100 µM (inactive) each time.
As for `CC(=O)c1c2n(n(-c3ccccc3)c1=O)C(=O)c1nccnc1-2`, the GI50 was > 100 µM (inactive) in the assay on A498; > 100 µM (inactive) with CAKI-1; > 100 µM (inactive) with COLO 205; greater than 100 µM in the assay on HCT-15; > 100 µM (inactive) in the assay on Hs-578T; > 100 µM (inactive) with MDA-MB-435. Also, the GI50 in the assay with NCI-H226, in the assay on NCI-H23, in the assay on NCI-H522, with NCI/ADR-RES, in the assay with OVCAR-5 and with OVCAR-8 was > 100 µM (inactive) in each case. Also, the GI50 was > 100 µM (inactive) in the assay with PC-3; > 100 µM (inactive) in the assay on SF-539; > 100 µM (inactive) in the assay with SK-MEL-28; > 100 µM (inactive) with SK-MEL-2; > 100 µM (inactive) with SK-OV-3; 54.1 µM (inactive) with SNB-75. Besides, the GI50 in the assay with SW-620 and with UACC-62 was > 100 µM (inactive) each time.
For the compound `COC(=O)C1CCC(=O)N1CN(C(C)=O)c1cccc(O)c1` (stereo not given), the GI50 in the assay on A498 is > 100 µM (inactive); in the assay with CAKI-1, > 100 µM (inactive); with COLO 205 it was > 100 µM (inactive); in the assay on HCT-15, greater than 100 µM; with Hs-578T it was > 100 µM (inactive); in the assay on MDA-MB-435, > 100 µM (inactive). In addition, the GI50 in the assay with NCI-H226, in the assay on NCI-H23, in the assay on NCI-H522, in the assay with NCI/ADR-RES, in the assay on OVCAR-5 and with OVCAR-8 was > 100 µM (inactive) throughout. Moreover, the GI50 in the assay on PC-3, with SF-539, with SK-MEL-28, in the assay with SK-MEL-2, in the assay with SK-OV-3 and in the assay with SNB-75 was > 100 µM (inactive) in each case. Moreover, the GI50 with SW-620 and in the assay on UACC-62 was > 100 µM (inactive) in each case.
As to `OC1c2ccccc2CCC1C(O)(C(F)(F)F)C(F)(F)F` (stereo not given), the GI50 is > 100 µM (inactive) in the assay on A498; > 100 µM (inactive) in the assay with CAKI-1; > 100 µM (inactive) in the assay with COLO 205; greater than 100 µM in the assay on HCT-15; > 100 µM (inactive) in the assay on Hs-578T; > 100 µM (inactive) with MDA-MB-435. The GI50 was 38.4 µM (inactive) with NCI-H226; 85.1 µM (inactive) with NCI-H23; > 100 µM (inactive) with NCI-H522; > 100 µM (inactive) in the assay with NCI/ADR-RES; > 100 µM (inactive) in the assay on OVCAR-5; > 100 µM (inactive) with OVCAR-8. The GI50 is > 100 µM (inactive) in the assay with PC-3; > 100 µM (inactive) in the assay on SF-539; > 100 µM (inactive) in the assay with SK-MEL-28; > 100 µM (inactive) in the assay on SK-MEL-2; > 100 µM (inactive) in the assay on SK-OV-3; 45.8 µM (inactive) in the assay with SNB-75. The GI50 in the assay with SW-620 and with UACC-62 was > 100 µM (inactive) each time.
